[invAb] = inverted abasic unit; m = 2'-O-methyl; r = 2'-OH (RNA); f = 2'-fluoro
How the values were obtained:
STAT6 protein = experiment: STAT6 Western Blot after 6-well plate transfection of A549 cells; assay type: cell-based, human; settings: STAT6 protein band density, 72 h post-transfection, average ±S.D., n = 3
Method: A549 cells were plated in 6-well plates at final counts of 70,000 cells/well in 2 ml of complete growth media. Transfection was performed using 2.5 uL of RNAiMax per well. Final concentration of siNAs was 30 nM (screen) and 30, 0.3, and 0.003 nM (dose response study). Protein lysates were harvested 24, 48, and 72 hours post-transfection (screen) and 72 hours post-transfection (dose response study). Protein lysates were prepared using Cell Extraction Buffer (Invitrogen, cat# FNN0011) according to manufacturer's instructions. Protein concentration was measured using a Bradford Quick Start Kit (Bio-Rad, cat#500-0205).
The protein source for the Western Blot experiments were from transfection of A549 cells in a 6 well plate, as described above.
Protein samples were diluted 1:1 in 2× Laemmli buffer with 5% 13-mercapto-ethanol and incubated at 95° C. for 5 minutes. 40-50 ug of protein was loaded in each lane of 10% Tris-HCl gel. One lane was designated for MagicMark Protein Standard (Invitrogen # LC5602). The gel was run at 100V for approximately 2 hours. Protein was transferred to a PVDF membrane at 100V for 60 minutes. Once the transfer was finished, the membrane was blocked in 1% Casein in PBS (BioRad Cat#161-0783) for 1 hour on a plate rocker at room temperature followed by the overnight incubation at 4° C. with mouse monoclonal anti-STAT6 primary antibody (BD Biosciences, cat#611291) diluted 1:500 in 1% Casein. On the next day, the blot was washed 4×5 minutes in PBST solution and incubated for 30 minutes at room temperature with goat anti-mouse secondary antibody (Pierce Biotechnology, cat#3 31430) diluted 1:20,000 in 1% Casein. Then, the blot was washed 4×5 minutes with PBST and incubated for 1 minute with ECL Western Blotting Substrate (Pierce Biotechnology, Cat#32106). The bands were visualized on the Bio-Rad VersaDoc Imager.
The protein bands were quantified by computing their density which is defined by the ratio between the total intensity of all pixels and the area of the rectangle drawn around each band (intensity/mm^2). The density was calculated by the BioRad software.
The level of protein was quantified using the Bio-Rad VersaDoc Imager according to the protocols of that piece of equipment. A pixel count was performed in each lane using an area of identical size. Each sample was then compared to the appropriate control treated sample and converted to a percent of protein remaining compared to control.
The effects of lead siNAs on STATE protein level were compared to the effects of the universal control using a two tail Student's T-test to obtain a P value. P<0.05 was considered significant.
The siNAs and control were tested were tested at doses of 30 nM, […]. Blots were then probed with a-STAT6 and α-tubulin antibodies. All samples were harvested 72 hours post-transfection. The ratios of the treatments were then compared to the ratio of the control group using an t-test assuming unequal variances.

[1] = test system: human STAT4 mRNA transcript; experiment: STAT4 specificity screen in human A549 cells, STAT4 mRNA by quantitative RT-PCR; assay type: cell-based; settings: three experiments, mean ± standard deviation
Method: A549 (human; ATCC cat# CCL-185): Cells were cultured at 37° C. in the presence of 5% CO2 and grown in Ham's F12K medium with 2 mM L-glutamine adjusted to contain 1.5 g/L sodium bicarbonate and supplemented with fetal bovine serum at a final concentration of 10%, 100 μg/mL of streptomycin, and 100 U/mL penicillin.
A series of probes and primers were used to detect the various mRNA transcripts of the genes of 13-Actin (human cell line only), and of STATE and GAPDH in mouse and human cell lines. All Taqman probes and primers for the experiments here-in described were supplied as pre-validated sets by Applied Biosystems, Inc. (see Table 2).
The assays were performed on an ABI 7900 instrument, according to the manufacturer's instructions. A TaqMan Gene Expression Master Mix (provided in the Cells-to-CTT™, Applied Biosystems, Cat #4399002) was used. The PCR reactions were carried out at 50° C. for 2 min, 95° C. for 20 min followed by 40 cycles at 95° C. for 15 secs and 60° C. for 1 min.
The expression level of the gene of interest and % knock-down was calculated using Comparative Ct method:
ΔΔCt=ΔCt(Target siNA)−ΔCt(NTC)
Relative expression level=2^−ΔΔCt
The non-targeting control siNA was, unless otherwise indicated, chosen as the value against which to calculate the % knock-down, because it is the most relevant control.
The siNAs from Table 4 were tested in human A549 cell line at a lower concentration (1 nM versus the original screening concentration of 10 nM) to determine the effect of the STATE siRNAs on the mRNA transcript of human STAT4.

Row | Substance | Density (Intensity/mm^2), 3 pM, 72 h (STAT6 protein) [Intensity/mm^2] | Density (Intensity/mm^2), 300 pM, 72 h (STAT6 protein) [Intensity/mm^2] | Density (Intensity/mm^2), 30 nM, 72 h (STAT6 protein) [Intensity/mm^2] | % KD STAT4 1 nM [1] [%]
1 | 29997-DC: STAT6 siNA duplex; sense SEQ ID NO: 58, antisense SEQ ID NO: 59; target CUACCAUGGUGCCUUCUUA, site 2262 (sense CUACCAUGGUGCCUUCUUATT; antisense UAAGAAGGCACCAUGGUAGUU; sense: DNA at AGT, 2'-fluoro at CU, [invAb] at 5' end, 3' end, backbone not given here; antisense: sugars from the 5' end rrrmmmmmfmffmfmmfmmmm, backbone not given here) [STAT6 siNA duplex; target CUACCAUGGUGCCUUCUUA, site 2262] | 49839.8 ± 2352.8 | 5732.4 ± 1189.0 | 3203.8 ± 1309.6 | 2.6 ± 25
2 | 29990-DC: STAT6 siNA duplex; sense SEQ ID NO: 44, antisense SEQ ID NO: 45; target GUGAAAGCCUGGUGGACAU, site 954 (sense GUGAAAGCCUGGUGGACAUTT; antisense AUGUCCACCAGGCUUUCACUU; sense: DNA at AGT, 2'-fluoro at CU, [invAb] at 5' end, 3' end, backbone not given here; antisense: sugars from the 5' end rrrfffmffmmmfffffmfmm, backbone not given here) [STAT6 siNA duplex; target GUGAAAGCCUGGUGGACAU, site 954] | 50078.4 ± 5978.2 | 6192.2 ± 714.5 | 1134.6 ± 362.7 | −2.1 ± 25.7
3 | 30008-DC: STAT6 siNA duplex; sense SEQ ID NO: 80, antisense SEQ ID NO: 81; target CUGCUCUGCUCAGAUGUGA, site 2549 (sense CUGCUCUGCUCAGAUGUGATT; antisense UCACAUCUGAGCAGAGCAGUU; sense: DNA at AGT, 2'-fluoro at CU, [invAb] at 5' end, 3' end, backbone not given here; antisense: sugars from the 5' end rrrfmfffmmmfmmmmfmmmm, backbone not given here) [STAT6 siNA duplex; target CUGCUCUGCUCAGAUGUGA, site 2549] | 58808.1 ± 5023.9 | 8356.8 ± 2186.6 | 4254 ± 1579.4 | 16.4 ± 17
